{"source": "patent US4997825A", "about": "“Synergistic treatment method” (Eli Lilly and Company, priority 1989, dated 1991)", "key": {"Plasma GH [1]": {"test_system": "Plasma GH", "experiment": "Plasma growth hormone in wethers during 5-day continuous infusion of hGRF (acid form) through a jugular cannula, with or without estradiol implant; radioimmunological analysis", "format": "in vivo", "details": "no hGRF (Control), estradiol implant about 25 mcg/day", "method": "Wethers weighing about 32 kg were confined in metabolism crates for about 7 days before the experiment began. […] Two days before the start of the treatment schedule, a Silastic (Dow Corning Corporation) cannula was inserted in each jugular vein of each wether. Four animals, two implanted and two unimplanted, were assigned to three GRF treatments, 1.5 mg/day, 0.33 mg/day and control. The GRF which was used was hGRF in the acid form, synthesized by solid phase synthetic methodology according to the general procedure of Merrifield et al., Biochemistry 21, 5020 (1982).\nGRF was infused through one of the cannulae continuously for 5 days to the treated wethers, using a Harvard peristaltic pump. The GRF was diluted in physiological saline to a concentration such that the actual delivery rate was 0.5 ml of infusate per minute.\nSix blood samples were collected from each wether each day, beginning 1 day before the start of infusion and continuing 1 day after the end of it. Two samples were obtained within 1 hour just before the beginning of each 1-hour ad libitum meal, and 1 sample was taken at the end of each meal. The animals received two 1-hour meals daily at 12 hour intervals. Additional blood samples were taken 1 hour before, just before, 10 minutes after and 60 minutes after the start of infusion. At the end of the infusion period, additional blood samples were obtained at 10, 20, 30 and 60 minutes after the termination of infusion.\nThe plasma was separated from the other components of the blood samples, and was analyzed for growth hormone by a standard radioimmunological procedure.\nThe table below reports the growth hormone levels in the animals, reported as means of all of the analyses in the stated time period. The data from animals which were implanted with estradiol are indicated by \"+\" in the column headed Estradiol."}, "Plasma GH [2]": {"test_system": "Plasma GH", "experiment": "Plasma growth hormone in lambs during subcutaneous infusion of hGRF analog (serine at position 27), with or without estradiol implant", "format": "in vivo", "details": "no hGRF (Control)", "method": "This experiment was carried out substantially according to the scheme of Example 1. In this test, the GRF was a hGRF analog having serine in place of methionine at position 27; the GRF was prepared by recombinant methods. Four rates of hGRF were used, 0.75, 1.5 and 3.0 mg/day, and controls.\nThe hGRF was infused through a subcutaneous Silastic cannula using an IVAC model 630 pump (IVAC Corporation, San Diego). The hGRF was diluted in physiological saline to provide concentrations such that 48 ml/day of each infusate could be supplied to each animal."}, "growth hormone [3]": {"test_system": "growth hormone", "details": "intravenously, normal men; cited from earlier work"}, "[4]": {"test_system": "growth hormone concentration", "details": "large doses, normal men, measured fasting; cited from earlier work"}, "growth hormone [5]": {"test_system": "growth hormone", "details": "steers, finishing diet with 10 mg/head/day; cited from earlier work"}, "growth hormone [6]": {"test_system": "growth hormone", "details": "rats, Rhesus monkeys, rabbits, sheep, cattle and chickens, as well as humans; cited from earlier work"}}, "note": "Read-outs that look alike come from different tables or passages of the source. No end group written: not given here.", "data": [{"molecule": "C[C@]12CC[C@@H]3c4ccc(O)cc4CC[C@H]3[C@@H]1CC[C@@H]2O", "note": "[Estradiol, estradiol]", "values": [{"measurement": "Plasma GH, Infusion Period Day 1", "setting": "Plasma GH [1]", "result": 3.3, "unit": "ng/mL"}, {"measurement": "Plasma GH, Infusion Period Day 2", "setting": "Plasma GH [1]", "result": 4.3, "unit": "ng/mL"}, {"measurement": "Plasma GH, Infusion Period Day 3", "setting": "Plasma GH [1]", "result": 2.9, "unit": "ng/mL"}, {"measurement": "Plasma GH, Infusion Period Day 4", "setting": "Plasma GH [1]", "result": 5.2, "unit": "ng/mL"}, {"measurement": "Plasma GH, Infusion Period Day 5", "setting": "Plasma GH [1]", "result": 4.2, "unit": "ng/mL"}, {"measurement": "Plasma GH, Posttreatment", "setting": "Plasma GH [1]; day after infusion", "result": 2.4, "unit": "ng/mL"}, {"measurement": "Plasma GH, Pretreatment", "setting": "Plasma GH [1]; mean of analyses, day before infusion", "result": 2.8, "unit": "ng/mL"}, {"measurement": "Plasma GH, Infusion Period Day 1", "setting": "Plasma GH [2]", "result": 5.9, "unit": "ng/mL"}, {"measurement": "Plasma GH, Infusion Period Day 2", "setting": "Plasma GH [2]", "result": 10.0, "unit": "ng/mL"}, {"measurement": "Plasma GH, Infusion Period Day 3", "setting": "Plasma GH [2]", "result": 6.2, "unit": "ng/mL"}, {"measurement": "Plasma GH, Infusion Period Day 5", "setting": "Plasma GH [2]", "result": 8.8, "unit": "ng/mL"}, {"measurement": "Plasma GH, Posttreatment", "setting": "Plasma GH [2]", "result": 8.7, "unit": "ng/mL"}, {"measurement": "Plasma GH, Pretreatment", "setting": "Plasma GH [2]", "result": 11.6, "unit": "ng/mL"}]}, {"molecule": "C#C[C@]1(O)CC[C@H]2[C@@H]3CCc4cc(O)ccc4[C@H]3CC[C@@]21C", "note": "[Ethinyl estradiol]", "values": [{"measurement": "growth hormone", "setting": "growth hormone [3]", "result": "significant increase in growth hormone in 5 of 6 patients"}]}, {"molecule": "CC/C(=C(/CC)c1ccc(O)cc1)c1ccc(O)cc1", "note": "[diethylstilbestrol]", "values": [{"measurement": "growth hormone concentration", "setting": "[4]", "result": "increased growth hormone concentration"}]}, {"molecule": "CC/C(=C(/CC)c1ccc(O)cc1)c1ccc(O)cc1", "note": "[stilbestrol]", "values": [{"measurement": "growth hormone", "setting": "growth hormone [5]", "result": "increased growth hormone"}]}, {"molecule": "endogenous human GRF: GRF naturally produced by humans; peptide of 43 or 44 amino acids (YADAIFTNSYRKVLGQLSARKLLQDIMSRQQGESNQERGARARL; ends and bridges not checked; UniProt P01286 32-75, looked up)", "values": [{"measurement": "GRF activity across species", "setting": "growth hormone [6]", "result": "active"}]}, {"molecule": "hGRF40 acid: human GRF analog having 40 amino acids and a free acid terminal (YADAIFTNSYRKVLGQLSARKLLQDIMSRQQGESNQERGA-OH; UniProt P01286 32-71, looked up, fragment)", "values": [{"measurement": "GRF activity across species", "setting": "growth hormone [6]", "result": "active"}]}]}
